What was measured:
[1] = target: Serine/threonine-protein kinase PLK3 (Homo sapiens) (UniProt Q9H4B4); experiment: Residual activity of PLK3 at 10 uM by microplate scintillation counting
[2] = target: RAC-beta serine/threonine-protein kinase (Homo sapiens) (UniProt P31751); experiment: Residual activity of AKT2 at 1 uM by microplate scintillation counting
[3] = target: Vascular endothelial growth factor receptor 1 (Homo sapiens) (UniProt P17948); experiment: Residual activity of VEGFR1 at 0.1 uM by microplate scintillation counting
[4] = target: T1, Calcium/calmodulin-dependent protein kinase type IV (Homo sapiens) (UniProt Q16566); experiment: Residual activity of CAMK4 at 10 uM by microplate scintillation counting
T1 sequence (whole entry): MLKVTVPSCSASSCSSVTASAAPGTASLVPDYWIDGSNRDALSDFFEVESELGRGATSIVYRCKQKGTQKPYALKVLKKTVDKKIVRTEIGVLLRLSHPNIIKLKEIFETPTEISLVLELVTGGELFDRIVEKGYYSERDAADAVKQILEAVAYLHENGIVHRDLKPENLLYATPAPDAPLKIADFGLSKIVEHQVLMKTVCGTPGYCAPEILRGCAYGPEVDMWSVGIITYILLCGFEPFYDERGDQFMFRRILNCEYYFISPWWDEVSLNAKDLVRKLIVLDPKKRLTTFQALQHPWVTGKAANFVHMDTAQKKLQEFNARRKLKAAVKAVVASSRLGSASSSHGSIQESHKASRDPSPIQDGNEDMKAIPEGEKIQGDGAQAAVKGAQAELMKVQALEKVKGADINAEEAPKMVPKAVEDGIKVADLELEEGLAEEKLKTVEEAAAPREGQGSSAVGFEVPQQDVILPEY

[5] = target: Calcium/calmodulin-dependent protein kinase type II subunit alpha (Homo sapiens) (UniProt Q9UQM7); experiment: Residual activity of CAMK2A at 1 uM by microplate scintillation counting
Sequence of Calcium/calmodulin-dependent protein kinase type II subunit alpha (Homo sapiens) (Q9UQM7 whole entry): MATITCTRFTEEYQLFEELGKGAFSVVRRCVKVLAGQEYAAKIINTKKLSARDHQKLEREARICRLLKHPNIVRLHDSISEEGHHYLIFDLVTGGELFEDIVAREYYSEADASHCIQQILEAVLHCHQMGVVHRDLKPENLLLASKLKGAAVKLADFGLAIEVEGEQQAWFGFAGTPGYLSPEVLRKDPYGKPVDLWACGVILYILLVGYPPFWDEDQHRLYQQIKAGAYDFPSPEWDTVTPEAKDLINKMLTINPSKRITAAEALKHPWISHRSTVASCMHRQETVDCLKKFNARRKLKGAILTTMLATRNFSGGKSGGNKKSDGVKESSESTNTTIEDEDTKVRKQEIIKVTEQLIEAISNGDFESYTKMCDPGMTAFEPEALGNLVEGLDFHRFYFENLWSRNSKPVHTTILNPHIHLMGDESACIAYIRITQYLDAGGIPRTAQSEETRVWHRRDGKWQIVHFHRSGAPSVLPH

[6] = target: Ribosomal protein S6 kinase alpha-2 (Homo sapiens) (UniProt Q15349); experiment: Residual activity of RPS6KA2 at 1 uM by microplate scintillation counting
Sequence of Ribosomal protein S6 kinase alpha-2 (Homo sapiens) (Q15349 whole entry): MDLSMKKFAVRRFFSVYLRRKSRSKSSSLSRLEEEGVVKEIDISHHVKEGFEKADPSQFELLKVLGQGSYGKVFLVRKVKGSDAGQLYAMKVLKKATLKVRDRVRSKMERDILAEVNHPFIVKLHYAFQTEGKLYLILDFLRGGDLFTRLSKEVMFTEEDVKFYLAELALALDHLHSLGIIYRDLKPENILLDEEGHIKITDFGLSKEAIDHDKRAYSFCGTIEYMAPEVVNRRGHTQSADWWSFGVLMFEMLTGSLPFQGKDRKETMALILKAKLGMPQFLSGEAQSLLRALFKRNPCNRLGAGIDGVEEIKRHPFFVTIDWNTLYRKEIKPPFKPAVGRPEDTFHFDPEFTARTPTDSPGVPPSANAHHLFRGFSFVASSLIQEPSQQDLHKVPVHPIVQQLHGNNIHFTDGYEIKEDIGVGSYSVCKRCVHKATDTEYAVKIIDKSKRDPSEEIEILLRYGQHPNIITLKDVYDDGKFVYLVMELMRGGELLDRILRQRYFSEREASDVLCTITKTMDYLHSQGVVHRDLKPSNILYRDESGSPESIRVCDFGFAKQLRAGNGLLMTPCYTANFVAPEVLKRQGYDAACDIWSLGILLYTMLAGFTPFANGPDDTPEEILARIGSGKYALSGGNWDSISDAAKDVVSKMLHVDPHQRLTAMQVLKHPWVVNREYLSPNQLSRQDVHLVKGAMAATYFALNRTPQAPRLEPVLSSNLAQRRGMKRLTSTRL

[7] = target: Homeodomain-interacting protein kinase 3 (Homo sapiens) (UniProt Q9H422); experiment: Residual activity of HIPK3 at 10 uM by microplate scintillation counting
Sequence of Homeodomain-interacting protein kinase 3 (Homo sapiens) (Q9H422 whole entry, looked up): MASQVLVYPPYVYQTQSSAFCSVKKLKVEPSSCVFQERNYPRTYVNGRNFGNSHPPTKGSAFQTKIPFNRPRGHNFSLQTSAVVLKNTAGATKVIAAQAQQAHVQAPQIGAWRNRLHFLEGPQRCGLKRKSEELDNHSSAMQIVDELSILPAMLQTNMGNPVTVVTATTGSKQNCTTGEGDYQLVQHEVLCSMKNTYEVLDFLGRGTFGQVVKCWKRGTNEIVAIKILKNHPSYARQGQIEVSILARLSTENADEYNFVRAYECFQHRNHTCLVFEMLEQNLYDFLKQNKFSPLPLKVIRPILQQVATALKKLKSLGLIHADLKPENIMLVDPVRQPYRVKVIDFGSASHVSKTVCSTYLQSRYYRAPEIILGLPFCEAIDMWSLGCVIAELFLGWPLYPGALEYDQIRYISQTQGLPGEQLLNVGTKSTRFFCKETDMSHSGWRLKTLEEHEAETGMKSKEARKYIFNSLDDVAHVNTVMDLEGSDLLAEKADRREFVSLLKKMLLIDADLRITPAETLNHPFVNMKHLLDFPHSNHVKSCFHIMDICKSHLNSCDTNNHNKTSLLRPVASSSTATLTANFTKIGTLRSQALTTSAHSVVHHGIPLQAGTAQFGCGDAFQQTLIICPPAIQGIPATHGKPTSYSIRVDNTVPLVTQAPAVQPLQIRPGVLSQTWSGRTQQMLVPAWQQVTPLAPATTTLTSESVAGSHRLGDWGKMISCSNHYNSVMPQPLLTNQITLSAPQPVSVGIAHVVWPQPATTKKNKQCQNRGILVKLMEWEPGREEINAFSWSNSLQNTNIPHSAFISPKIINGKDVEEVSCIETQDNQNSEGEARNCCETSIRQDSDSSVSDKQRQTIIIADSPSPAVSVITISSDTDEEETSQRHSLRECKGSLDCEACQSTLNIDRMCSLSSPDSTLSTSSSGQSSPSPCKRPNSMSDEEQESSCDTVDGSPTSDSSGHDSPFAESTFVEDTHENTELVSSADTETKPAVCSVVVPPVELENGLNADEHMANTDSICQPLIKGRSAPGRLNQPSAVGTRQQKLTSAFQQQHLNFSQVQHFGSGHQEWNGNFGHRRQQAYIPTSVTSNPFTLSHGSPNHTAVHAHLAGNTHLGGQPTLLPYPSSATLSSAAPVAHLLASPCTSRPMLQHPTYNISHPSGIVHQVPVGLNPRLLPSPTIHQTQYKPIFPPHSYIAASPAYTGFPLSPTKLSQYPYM

[8] = target: Proto-oncogene tyrosine-protein kinase receptor Ret (Homo sapiens) (UniProt P07949); experiment: Residual activity of RET at 0.1 uM by microplate scintillation counting
Sequence of Proto-oncogene tyrosine-protein kinase receptor Ret (Homo sapiens) (P07949 whole entry): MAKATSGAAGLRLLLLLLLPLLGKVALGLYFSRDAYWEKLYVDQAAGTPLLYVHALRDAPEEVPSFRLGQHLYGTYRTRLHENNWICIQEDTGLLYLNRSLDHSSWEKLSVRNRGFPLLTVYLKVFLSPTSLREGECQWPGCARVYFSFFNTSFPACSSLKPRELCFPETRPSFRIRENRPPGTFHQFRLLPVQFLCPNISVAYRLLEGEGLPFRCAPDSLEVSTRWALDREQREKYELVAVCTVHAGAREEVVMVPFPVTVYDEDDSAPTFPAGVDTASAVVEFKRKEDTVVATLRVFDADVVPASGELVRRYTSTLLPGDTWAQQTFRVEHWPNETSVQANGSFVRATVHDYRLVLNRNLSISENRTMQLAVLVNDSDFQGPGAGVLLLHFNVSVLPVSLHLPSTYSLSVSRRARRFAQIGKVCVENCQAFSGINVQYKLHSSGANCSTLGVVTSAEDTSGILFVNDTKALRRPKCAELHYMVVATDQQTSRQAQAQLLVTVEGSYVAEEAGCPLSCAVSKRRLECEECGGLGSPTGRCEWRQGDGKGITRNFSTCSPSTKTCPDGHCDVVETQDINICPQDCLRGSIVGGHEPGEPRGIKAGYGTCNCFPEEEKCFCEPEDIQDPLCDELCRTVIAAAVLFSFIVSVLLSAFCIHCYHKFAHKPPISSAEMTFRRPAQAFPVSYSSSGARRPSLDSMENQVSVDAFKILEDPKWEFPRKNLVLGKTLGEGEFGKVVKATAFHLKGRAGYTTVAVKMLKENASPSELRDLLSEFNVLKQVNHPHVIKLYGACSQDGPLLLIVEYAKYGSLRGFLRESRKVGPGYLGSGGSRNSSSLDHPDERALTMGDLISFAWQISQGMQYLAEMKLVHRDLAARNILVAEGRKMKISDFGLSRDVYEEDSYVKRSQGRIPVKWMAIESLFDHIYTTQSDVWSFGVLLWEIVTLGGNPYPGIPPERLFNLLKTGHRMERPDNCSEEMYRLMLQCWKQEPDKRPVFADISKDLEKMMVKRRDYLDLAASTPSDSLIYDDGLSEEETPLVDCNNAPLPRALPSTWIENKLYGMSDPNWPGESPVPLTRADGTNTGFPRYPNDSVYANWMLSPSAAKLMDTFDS

[9] = Residual activity of S6K at 0.1 uM by microplate scintillation counting
[10] = target: Mitogen-activated protein kinase 10 (Homo sapiens) (UniProt P53779); experiment: Residual activity of JNK3 at 0.1 uM by microplate scintillation counting
[11] = target: T2, Testis-specific serine/threonine-protein kinase 1 (Homo sapiens) (UniProt Q9BXA7); experiment: Residual activity of TSSK1 at 1 uM by microplate scintillation counting
T2 sequence (whole entry): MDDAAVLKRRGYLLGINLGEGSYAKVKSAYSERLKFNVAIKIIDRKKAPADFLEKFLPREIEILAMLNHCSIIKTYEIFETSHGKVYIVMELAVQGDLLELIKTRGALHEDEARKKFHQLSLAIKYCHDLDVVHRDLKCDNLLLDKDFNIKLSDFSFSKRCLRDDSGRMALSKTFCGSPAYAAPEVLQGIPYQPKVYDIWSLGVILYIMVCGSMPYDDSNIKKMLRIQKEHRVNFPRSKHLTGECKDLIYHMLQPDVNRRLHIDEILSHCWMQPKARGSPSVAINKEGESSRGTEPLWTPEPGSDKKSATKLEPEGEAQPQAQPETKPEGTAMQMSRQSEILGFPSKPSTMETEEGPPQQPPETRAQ

[12] = target: Serine/threonine-protein kinase PAK 4 (Homo sapiens) (UniProt O96013); experiment: Residual activity of PAK4 at 0.1 uM by microplate scintillation counting
[13] = target: Serine/threonine-protein kinase pim-2 (Homo sapiens) (UniProt Q9P1W9); experiment: Residual activity of PIM2 at 1 uM by microplate scintillation counting
Sequence of Serine/threonine-protein kinase pim-2 (Homo sapiens) (Q9P1W9 whole entry, looked up): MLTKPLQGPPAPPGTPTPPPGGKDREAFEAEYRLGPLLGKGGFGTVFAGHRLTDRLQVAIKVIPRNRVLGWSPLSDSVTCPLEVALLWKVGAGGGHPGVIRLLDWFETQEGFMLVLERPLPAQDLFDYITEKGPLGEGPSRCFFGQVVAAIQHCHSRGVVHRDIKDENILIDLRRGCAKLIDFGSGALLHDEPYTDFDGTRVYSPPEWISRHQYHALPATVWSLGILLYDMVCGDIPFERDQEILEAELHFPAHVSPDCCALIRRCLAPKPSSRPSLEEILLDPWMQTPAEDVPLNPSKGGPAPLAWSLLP

[14] = target: T3, cAMP-dependent protein kinase catalytic subunit PRKX (Homo sapiens) (UniProt P51817); experiment: Residual activity of PRKX at 1 uM by microplate scintillation counting
T3 sequence (whole entry): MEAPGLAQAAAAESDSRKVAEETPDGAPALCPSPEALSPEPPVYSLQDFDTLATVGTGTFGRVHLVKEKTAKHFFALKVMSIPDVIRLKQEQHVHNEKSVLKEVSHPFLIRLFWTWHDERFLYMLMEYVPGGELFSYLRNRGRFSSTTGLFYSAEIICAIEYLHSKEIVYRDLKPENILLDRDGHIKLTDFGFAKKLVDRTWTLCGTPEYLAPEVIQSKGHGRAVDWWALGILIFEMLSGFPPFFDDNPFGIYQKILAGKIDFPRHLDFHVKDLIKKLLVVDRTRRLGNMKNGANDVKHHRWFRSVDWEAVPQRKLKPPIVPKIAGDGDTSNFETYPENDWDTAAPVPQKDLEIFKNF

[15] = target: Serine/threonine-protein kinase 33 (Homo sapiens) (UniProt Q9BYT3); experiment: Residual activity of STK33 at 1 uM by microplate scintillation counting
[16] = target: Serine/threonine-protein kinase PAK 2 (Homo sapiens) (UniProt Q13177); experiment: Residual activity of PAK2 at 0.1 uM by microplate scintillation counting
Sequence of Serine/threonine-protein kinase PAK 2 (Homo sapiens) (Q13177 whole entry): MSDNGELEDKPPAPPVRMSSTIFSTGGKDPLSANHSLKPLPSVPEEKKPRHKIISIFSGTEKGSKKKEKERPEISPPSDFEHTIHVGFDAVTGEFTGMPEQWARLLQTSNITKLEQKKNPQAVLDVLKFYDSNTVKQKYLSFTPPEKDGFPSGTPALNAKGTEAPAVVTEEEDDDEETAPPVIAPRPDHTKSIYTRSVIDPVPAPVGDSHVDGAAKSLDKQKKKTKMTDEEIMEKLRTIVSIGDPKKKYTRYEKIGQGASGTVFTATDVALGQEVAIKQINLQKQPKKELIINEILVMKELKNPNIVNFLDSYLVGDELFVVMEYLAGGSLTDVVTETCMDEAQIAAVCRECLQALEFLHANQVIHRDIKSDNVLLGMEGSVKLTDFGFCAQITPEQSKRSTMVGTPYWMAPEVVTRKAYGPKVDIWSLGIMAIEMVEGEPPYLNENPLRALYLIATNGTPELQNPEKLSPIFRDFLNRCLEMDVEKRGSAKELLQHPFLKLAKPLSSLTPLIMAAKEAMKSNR

Sequence of RAC-beta serine/threonine-protein kinase (Homo sapiens) (P31751 whole entry): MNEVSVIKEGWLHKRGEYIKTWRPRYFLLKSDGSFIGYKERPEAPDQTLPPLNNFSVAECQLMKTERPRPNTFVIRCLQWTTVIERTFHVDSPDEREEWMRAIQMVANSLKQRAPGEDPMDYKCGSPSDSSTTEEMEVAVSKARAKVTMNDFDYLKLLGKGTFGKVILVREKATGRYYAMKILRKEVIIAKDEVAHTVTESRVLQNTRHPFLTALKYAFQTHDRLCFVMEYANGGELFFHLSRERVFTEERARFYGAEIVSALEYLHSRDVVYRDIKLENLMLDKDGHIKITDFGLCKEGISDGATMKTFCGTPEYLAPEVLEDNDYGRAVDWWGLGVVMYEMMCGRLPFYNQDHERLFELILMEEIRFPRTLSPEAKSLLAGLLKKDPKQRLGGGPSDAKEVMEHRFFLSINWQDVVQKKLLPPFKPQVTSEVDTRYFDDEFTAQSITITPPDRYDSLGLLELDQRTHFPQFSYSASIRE

residual activity [1] [%]	residual activity [2] [%]	residual activity [3] [%]	residual activity [4] [%]	residual activity [5] [%]	residual activity [6] [%]	residual activity [7] [%]	residual activity [8] [%]	residual activity [9] [%]	residual activity [10] [%]	residual activity [11] [%]	residual activity [12] [%]	residual activity [13] [%]	residual activity [14] [%]	residual activity [15] [%]	residual activity [16] [%]	SMILES
223	91	96	88	81	99	147	97	90	100	40	96	89	86	84	93	COc1cc2c(Oc3ccc(-c4nc5ccccc5s4)cc3)ncnc2cc1OCCCN1CCCC1
257	113	95	211	83	99	142	101	87	87	73	99	77	92	107	97	COc1cc2c(Oc3ccc(-c4nc5ccccc5s4)cc3F)ncnc2cc1OCCCN1CCN(C)CC1
2	83	93	227	69	88	132	92	85	113	55	102	63	89	72	111	COc1cc2c(Oc3ccc(-c4nc5ccccc5s4)cc3)ncnc2cc1OCCCN1CCN(C)CC1
